# Source: patent US20050229276A1, “Method of producing cyclamen root tuber and method of proliferating cyclamen using the same” (Tokyo University of Agricultural, priority 2002, published 2005)
# Key:
# [1] = system: explants from petioles of cyclamen (species: Flamenco); test: Culture of explants from petioles (comparative); format: cell-based; conditions: NAA 0.05 mg/l, 20 explants planted, 30 days
# Protocol: For comparison, the explants from leaves and petioles of cyclamen (species: Flamenco) were cultured for 30 days by changing the contents of BA and sucrose in a basal medium prepared by adding 0.05 mg/l of NAA and 6 g/l of agar to the ⅓ MS medium and having a pH of 7.0. In all the cases, the root tubers were hardly enlarged by culture and rarely regenerated and accordingly, a clonal plant could not be obtained with high reproducibility.
# [2] = system: cyclamen (cultivar: Dressy Scarlet) seedling; test: Growth of root tubers at cut root ends of seedlings in solid media; format: in vivo; conditions: 30-th day
# Protocol: A cyclamen (cultivar: Dressy Scarlet) seed was immersed in an ethyl alcohol aqueous solution having an ethyl alcohol concentration of 70 wt % for 10 seconds and in a sodium hypochlorite solution having an effective chlorine concentration of 1 wt % for 10 minutes to sterilize the surface of the seed. Thereafter, this seed was washed in sterilized water 3 times to remove the sodium hypochlorite from the surface of the seed. This was sown in an MS solid medium containing 30 g/l of sucrose and 6 g/l of agar under a germ-free condition and cultured at a temperature of 20° C. under weak light for 30 days to be germinated and rooted.
# The end portions of the roots of the above germinated and rooted cyclamen seedling were cut off with a scalpel, and the seedling was planted in the following solid media. As the media, a large number of experimental plots were prepared by adding NAA and BA as phytohormones to the ⅓ MS medium in concentrations shown in Tables 1 to 3 and further adding 30 to 90 g/l of sucrose. 6 g/l of agar was added to all of the media which were then sterilized in an autoclave to prepare media having a pH of 7.0. 10 ml of each of the solid media was placed in a 50 ml culture test tube. The stationary culture of the seedling planted in each of the media was carried out at 20° C. under weak light for a certain number of days to grow root tubers at the end portions of its roots.
# [3] = sucrose 30 g/l, BA 0.1 mg/l, NAA 0.00 mg/l
# [4] = sucrose 30 g/l, BA 0.1 mg/l, NAA 0.01 mg/l
# [5] = sucrose 30 g/l, BA 0.1 mg/l, NAA 0.05 mg/l
# [6] = sucrose 30 g/l, BA 1.0 mg/l, NAA 0.00 mg/l
# [7] = sucrose 30 g/l, BA 1.0 mg/l, NAA 0.01 mg/l
smiles,measurement,setting,value
"c1ccc(CNc2ncnc3[nH]cnc23)cc1 [BA, benzylaminopurine]",Number of enlarged explants,"[1]; BA 0.05 mg/l, sucrose 30 g/m",2
same,Number of regenerate explants,"[1]; BA 0.05 mg/l, sucrose 30 g/m",0
same,Number of enlarged explants,"[1]; BA 0.05 mg/l, sucrose 50 g/m",1
same,Number of regenerate explants,"[1]; BA 0.05 mg/l, sucrose 50 g/m",0
same,Number of enlarged explants,"[1]; BA 0.05 mg/l, sucrose 70 g/m",1
same,Number of regenerate explants,"[1]; BA 0.05 mg/l, sucrose 70 g/m",0
same,Number of enlarged explants,"[1]; BA 0.05 mg/l, sucrose 90 g/m",0
same,Number of regenerate explants,"[1]; BA 0.05 mg/l, sucrose 90 g/m",0
same,Number of enlarged explants,"[1]; BA 0.1 mg/l, sucrose 30 g/m",4
same,Number of regenerate explants,"[1]; BA 0.1 mg/l, sucrose 30 g/m",4
same,Number of enlarged explants,"[1]; BA 0.1 mg/l, sucrose 50 g/m",5
same,Number of regenerate explants,"[1]; BA 0.1 mg/l, sucrose 50 g/m",1
same,Number of enlarged explants,"[1]; BA 0.1 mg/l, sucrose 70 g/m",2
same,Number of regenerate explants,"[1]; BA 0.1 mg/l, sucrose 70 g/m",0
same,Number of enlarged explants,"[1]; BA 0.1 mg/l, sucrose 90 g/m",1
same,Number of regenerate explants,"[1]; BA 0.1 mg/l, sucrose 90 g/m",0
same,Number of enlarged explants,"[1]; BA 0.5 mg/l, sucrose 30 g/m",3
same,Number of regenerate explants,"[1]; BA 0.5 mg/l, sucrose 30 g/m",1
same,Number of enlarged explants,"[1]; BA 0.5 mg/l, sucrose 50 g/m",4
same,Number of regenerate explants,"[1]; BA 0.5 mg/l, sucrose 50 g/m",1
same,Number of enlarged explants,"[1]; BA 0.5 mg/l, sucrose 70 g/m",1
same,Number of regenerate explants,"[1]; BA 0.5 mg/l, sucrose 70 g/m",0
same,Number of enlarged explants,"[1]; BA 0.5 mg/l, sucrose 90 g/m",0
same,Number of regenerate explants,"[1]; BA 0.5 mg/l, sucrose 90 g/m",0
same,Number of enlarged explants,"[1]; BA 1 mg/l, sucrose 30 g/m",1
same,Number of regenerate explants,"[1]; BA 1 mg/l, sucrose 30 g/m",0
same,Number of enlarged explants,"[1]; BA 1 mg/l, sucrose 50 g/m",1
same,Number of regenerate explants,"[1]; BA 1 mg/l, sucrose 50 g/m",10
same,Number of enlarged explants,"[1]; BA 1 mg/l, sucrose 70 g/m",0
same,Number of regenerate explants,"[1]; BA 1 mg/l, sucrose 70 g/m",0
same,Number of enlarged explants,"[1]; BA 1 mg/l, sucrose 90 g/m",0
same,Number of regenerate explants,"[1]; BA 1 mg/l, sucrose 90 g/m",0
same,Number of grown root tubers,"[2]; BA 0.0 mg/l, sucrose 30 g/l, NAA 0.05 mg/l, 23 roots cut off",23
same,Enlarging ratio (diameter of root tuber vs root at start = 1),"[2]; BA 0.0 mg/l, sucrose 30 g/l, NAA 0.05 mg/l",8.4
same,Number of grown root tubers,"[2]; BA 0.1 mg/l, sucrose 30 g/l, NAA 0.05 mg/l, 17 roots cut off",17
same,Enlarging ratio (diameter of root tuber vs root at start = 1),"[2]; BA 0.1 mg/l, sucrose 30 g/l, NAA 0.05 mg/l",2.3
same,Number of grown root tubers,"[2]; BA 0.1 mg/l, sucrose 50 g/l, NAA 0.05 mg/l, 17 roots cut off",16
same,Enlarging ratio (diameter of root tuber vs root at start = 1),"[2]; BA 0.1 mg/l, sucrose 50 g/l, NAA 0.05 mg/l",3.2
same,Number of grown root tubers,"[2]; BA 0.1 mg/l, sucrose 70 g/l, NAA 0.05 mg/l, 21 roots cut off",21
same,Enlarging ratio (diameter of root tuber vs root at start = 1),"[2]; BA 0.1 mg/l, sucrose 70 g/l, NAA 0.05 mg/l",3.8
same,Number of grown root tubers,"[2]; BA 0.1 mg/l, sucrose 90 g/l, NAA 0.05 mg/l, 18 roots cut off",18
same,Enlarging ratio (diameter of root tuber vs root at start = 1),"[2]; BA 0.1 mg/l, sucrose 90 g/l, NAA 0.05 mg/l",5.0
same,Number of grown root tubers,"[2]; BA 0.5 mg/l, sucrose 30 g/l, NAA 0.05 mg/l, 20 roots cut off",20
same,Enlarging ratio (diameter of root tuber vs root at start = 1),"[2]; BA 0.5 mg/l, sucrose 30 g/l, NAA 0.05 mg/l",6.6
same,Number of grown root tubers,"[2]; BA 0.5 mg/l, sucrose 50 g/l, NAA 0.05 mg/l, 21 roots cut off",20
same,Enlarging ratio (diameter of root tuber vs root at start = 1),"[2]; BA 0.5 mg/l, sucrose 50 g/l, NAA 0.05 mg/l",9.5
same,Number of grown root tubers,"[2]; BA 0.5 mg/l, sucrose 70 g/l, NAA 0.05 mg/l, 25 roots cut off",25
same,Enlarging ratio (diameter of root tuber vs root at start = 1),"[2]; BA 0.5 mg/l, sucrose 70 g/l, NAA 0.05 mg/l",7.2
same,Number of grown root tubers,"[2]; BA 0.5 mg/l, sucrose 90 g/l, NAA 0.05 mg/l, 16 roots cut off",16
same,Enlarging ratio (diameter of root tuber vs root at start = 1),"[2]; BA 0.5 mg/l, sucrose 90 g/l, NAA 0.05 mg/l",6.0
same,Number of grown root tubers,"[2]; BA 1.0 mg/l, sucrose 50 g/l, NAA 0.05 mg/l, 24 roots cut off",23
same,Enlarging ratio (diameter of root tuber vs root at start = 1),"[2]; BA 1.0 mg/l, sucrose 50 g/l, NAA 0.05 mg/l",6.3
same,Number of grown root tubers,"[2]; BA 1.0 mg/l, sucrose 70 g/l, NAA 0.05 mg/l, 17 roots cut off",17
same,Enlarging ratio (diameter of root tuber vs root at start = 1),"[2]; BA 1.0 mg/l, sucrose 70 g/l, NAA 0.05 mg/l",5.4
same,Number of grown root tubers,"[2]; BA 1.0 mg/l, sucrose 90 g/l, NAA 0.05 mg/l, 4 roots cut off",3
same,Enlarging ratio (diameter of root tuber vs root at start = 1),"[2]; BA 1.0 mg/l, sucrose 90 g/l, NAA 0.05 mg/l",3.8
same,Number of large root tubers (diameter of 1 mm or more),[2]; [3],4
same,Total number of root tubers,[2]; [3],18
same,Number of large root tubers (diameter of 1 mm or more),[2]; [4],5
same,Total number of root tubers,[2]; [4],15
same,Number of large root tubers (diameter of 1 mm or more),[2]; [5],5
same,Total number of root tubers,[2]; [5],15
same,Number of large root tubers (diameter of 1 mm or more),[2]; [6],2
same,Total number of root tubers,[2]; [6],6
same,Number of large root tubers (diameter of 1 mm or more),[2]; [7],3
same,Total number of root tubers,[2]; [7],5
